Where “and” joins values, the source holds several entries; their conditions need not be identical. Identical values can stand only once.

Common to all, as to format: cell-based, BALB/c mice
The test system of experiment [1] is murine splenocytes. The experiment in a line: Ex vivo murine splenocytes proliferation assay (Alamar Blue), Example I. As to conditions: peptide 2000 μg/mL, FIG. 2. Background: Resazurin is reduced to fluorescent resorufin, in cell work by metabolically active cells.
Experiment [2] relates to murine splenocytes. Described as above. The procedure: Ex vivo murine splenocytes proliferation assay. The splenocytes were isolated from 6- to 12-weeks-old female BALB/c mice (Charles River, St-Constant, QC, Canada) and cultured in the absence and presence of suboptimal concentration of ConA (0.5 μg/mL). The peptides were solubilized in complete RPMI medium, agitated overnight at 4° C. then the solutions were adjusted to pH 7. Thereafter, the peptide solutions were added at various final concentrations (10-2000 μg/mL, protein basis) to the wells of 96-well round-bottomed microplates, which were incubated at 37° C. at 80% relative humidity in a 5% CO2 atmosphere for 72 h (with ConA) or 96 h (without ConA). Cell proliferation was evaluated by the reduction of the fluorochrome Alamar Blue™ (BioSource international, Camarillo, Calif., USA), which was added into the wells for the last 24 h of the incubation periods. The fluorescence of the supernatants was monitored at an excitation wavelength of 560 nm and an emission wavelength of 590 nm using a fluorometer (Fluoroscan Ascent, Thermo Electron Inc., Milford, Mass., USA). The assays were performed in triplicate (three wells per sample) and data are expressed as stimulation indices (SI), and calculated using the following equations: […]

Experiment [3] concerns murine splenocytes. In words: Cytokine secretion in splenocyte culture supernatants by ELISA, Example I. On the procedure: Cytokine analysis. The supernatants from 72 h-splenocytes cultures were collected and their cytokine content was measured. The optimal incubation times were determined from preliminary assays with peptide fractions. The levels of IL-4, IL-10 and IFN-γ were determined using commercial ELISA kits (BioLegend, San Diego, Calif., USA) according to the manufacturer's instructions. Interleukin-2 levels were also measured by ELISA using a commercial kit (BioSource International, Camarillo, Calif., USA) according to the manufacturer's instructions. The results are the means of four or more assays (three wells per sample). The detection limits for IL-2, IL-4, IL-10 and IFN-γ were <8.0, <1.0, <30.0 and <4.0 pg/mL, respectively.
Cytokine analysis were performed at concentration leading to optimal spleen cells proliferation of peptide β-Lg f139-148 (SEQ ID NO. 1) (2000 μg/mL) as reported in Tables 2 and 3. The sequence β-Lg f78-83 (SEQ ID NO. 10), resulting in no effect on the cytokine secretion of resting- and ConA-stimulated murine splenocytes (results not shown), was used as control at concentration of 10 μg/mL for statistical analysis. The effects of the selected peptide on cytokine secretion from splenocytes cultured in the absence and presence of 0.5 μg/mL of ConA are shown in Table 5.

Setting [4] is: splenocytes with ConA 0.5 μg mL^−1, control peptide 10 μg/mL.
[5] abbreviates: splenocytes without ConA, control peptide 10 μg/mL.

In the case of “IPAVFK (listed as Homo sapiens) [β-Lg f78-83, β-lactoglobulin fragment 78-83 used as control peptide, reference compound]”, the “Microscopic appearance of resting- and ConA-stimulated cultured cells” value in experiment [1] was “no effect on the appearance of cultured cells”. Also, the “Effect on the proliferation of ConA-stimulated murine splenocytes” value in experiment [2] (all concentrations studied (10-2000 μg/mL), ConA 0.5 μg/mL, FIG. 1B) is “no effect”. Besides, the “Effect on the proliferation of resting murine splenocytes” value in experiment [2] (all concentrations studied (10-2000 μg/mL), FIG. 1A) is given as “no effect”. For the same substance, in experiment [2] (peptide 10 μg mL^−1, 72 h, ConA 0.5 μg/mL), the “Stimulation index, proliferation of murine splenocytes in the presence of Concavanalin A” value was 2.10 and 1.91 and 1.93 and 1.68. In addition, the “Stimulation index, proliferation of resting murine splenocytes” value in experiment [2] (peptide 10 μg mL^−1, 96 h, without ConA) was 0.98 and 1.00 and 1.11 and 1.02 and 1.04. The “Effect on the cytokine secretion of resting- and ConA-stimulated murine splenocytes” value in experiment [3] (results not shown) is recorded as “no effect”. Also, in experiment [3] (setting [4]), the “IFN-γ secretion in supernatant” value worked out at 252.9 pg/mL, the “IL-2 secretion in supernatant” value was determined as 15.6 pg/mL, the “IL-4 secretion in supernatant” value was 4.4 pg/mL and the “IL-10 secretion in supernatant” value is under 30.0 pg/mL. For the same substance, in experiment [3] (setting [5]), the “IFN-γ secretion in supernatant” value is 7.1 pg/mL, the “IL-2 secretion in supernatant” value was 10.0 pg/mL, the “IL-4 secretion in supernatant” value was under 1.0 pg/mL and the “IL-10 secretion in supernatant” value was under 30.0 pg/mL.

These data come from patent US20090297545A1, “IMMUNOMODULATORY DAIRY PEPTIDES AND USES THEREOF” (Universite Laval, priority 2008, published 2009).
